For data set [1] the following is noted: reported in WO 2000058308 A1; cited from earlier work.
The conditions of data set [2]: reported in WO 2000058308 A1; cited from earlier work. The source holds these as a separate data set.
For a further data set, the system named is PDE4. The following applies: biological activity data, background; cited from earlier work.
A further data set addresses T1, PDE3A recombinant enzyme (Homo sapiens, UniProt Q14432).
T1 construct: purchased BPS 79736
In words: In vitro assay of inhibitory activity against PDE 3A enzyme (FP, FAM-cAMP). The class given is biochemical. The note with it: in vitro screening assay. As for the experimental part: (§1) • 1. In vitro assay of the inhibitory activity of compounds against PDE 3A and PDE 4B2 enzymes
(§2) • Envision 2104 Multilabel Reader (PerkinElmer) • Black 96-well Plate (Cat #6005540, PerkinElmer) • PDE3A Assay Kit (BPS, Cat. 79736), PDE4B2 Assay Kit (BPS, Cat. 60343) • PDE3A recombinant enzyme • PDE4B2 recombinant enzyme • FAM-Cyclic-3′, 5′-AMP • PDE assay buffer • Binding Agent • Binding Agent Diluent (cAMP)
(§3) • 1) Prepare FAM cAMP working solution: 20 μL of FAM-Cyclic-3′,5′-AMP stock was added to 1980 μL of PDE assay buffer. The mixture was added to all wells at 25 μL/well. • 2) Prepare compound solution: the test compounds were dissolved in DMSO to give a 10 mM stock solution. The compound stock solution was diluted with DMSO to a 100× Top Dose diluent. 5 μL of 100× Top Dose diluent was added to 45 μL of PDE assay buffer to prepare a compound Top Dose working solution. Then, the compound working solution was subjected to double dilution with PDE assay buffer containing 10% DMSO to prepare compound working solutions of various concentrations. The compound working solutions were added to compound wells at 5 μL/well. 5 μL of PDE assay buffer containing 10% DMSO was added to each control well. • 3) Prepare PDE enzyme solution: PDE3A and PDE4B2 enzyme stock solutions were diluted to 150 pg/μL and 50 pg/μL, respectively, with PDE assay buffer, and added to all compound wells and Vehicle control wells at 20 μL/well. 20 μL of PDE assay buffer was added to Blank control wells. • 4) React at room temperature for 1 h. • 5) Prepare Binding Agent: 80 μL of binding agent was added to 7920 μL of binding agent diluent, and the mixture was mixed well and added to all wells at 100 μL/well. • 6) React at room temperature for 1 h. • 7) Read FP on Envision. • 8) Calculation formula for original data:
(§4) % inhibition rate=(FPV−FPS)/(FPV−FPB)×100% • FPS=sample FP • FPV=Vehicle control FP • FPB=Blank control FP.
(§5) Nonlinear regression analysis of log[dose]-inhibition rate was performed by graphpad and IC50 was calculated.

In data set [3] the target is T2, PDE4B2 recombinant enzyme (Homo sapiens, UniProt Q07343).
T2 construct: purchased BPS 60343
Put plainly: In vitro assay of inhibitory activity against PDE 4B2 enzyme (FP, FAM-cAMP). The data set is classed as biochemical. The note with it: in vitro screening assay. As to the method: as §1, §2, §3, §4, §5

A word on the IC50: it is the concentration that inhibits the measured activity by half.

T1 sequence (Q14432 whole entry): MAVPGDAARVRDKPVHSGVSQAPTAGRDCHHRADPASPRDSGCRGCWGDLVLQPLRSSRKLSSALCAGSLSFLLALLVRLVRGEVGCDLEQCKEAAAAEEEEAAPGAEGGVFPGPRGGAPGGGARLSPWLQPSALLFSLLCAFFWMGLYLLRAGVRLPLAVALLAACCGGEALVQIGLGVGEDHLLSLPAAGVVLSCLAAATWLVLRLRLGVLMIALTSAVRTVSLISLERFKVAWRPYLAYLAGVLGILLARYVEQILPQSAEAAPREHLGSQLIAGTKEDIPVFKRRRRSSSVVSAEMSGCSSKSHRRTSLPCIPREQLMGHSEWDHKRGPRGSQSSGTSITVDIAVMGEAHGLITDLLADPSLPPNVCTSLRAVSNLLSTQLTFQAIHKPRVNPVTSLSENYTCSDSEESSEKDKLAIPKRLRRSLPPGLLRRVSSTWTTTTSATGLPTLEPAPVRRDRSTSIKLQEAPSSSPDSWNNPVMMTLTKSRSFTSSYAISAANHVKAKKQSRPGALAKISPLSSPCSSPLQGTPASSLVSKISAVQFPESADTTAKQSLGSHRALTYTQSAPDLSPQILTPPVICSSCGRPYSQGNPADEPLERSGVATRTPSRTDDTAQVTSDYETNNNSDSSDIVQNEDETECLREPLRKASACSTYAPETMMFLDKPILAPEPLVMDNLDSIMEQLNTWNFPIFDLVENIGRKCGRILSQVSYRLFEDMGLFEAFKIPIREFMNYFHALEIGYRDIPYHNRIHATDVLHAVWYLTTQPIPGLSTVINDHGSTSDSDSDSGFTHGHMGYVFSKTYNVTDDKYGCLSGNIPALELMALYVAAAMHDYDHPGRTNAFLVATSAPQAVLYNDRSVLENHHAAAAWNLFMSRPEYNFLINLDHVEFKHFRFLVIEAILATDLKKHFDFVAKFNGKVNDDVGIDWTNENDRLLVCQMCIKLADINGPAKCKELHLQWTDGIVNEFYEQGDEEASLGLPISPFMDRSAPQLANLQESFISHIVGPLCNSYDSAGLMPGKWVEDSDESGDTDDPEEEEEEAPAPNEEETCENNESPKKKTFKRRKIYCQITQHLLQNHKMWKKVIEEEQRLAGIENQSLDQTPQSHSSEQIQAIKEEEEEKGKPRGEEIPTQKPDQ
T2 sequence (Q07343 1-564 isoform Q07343-2): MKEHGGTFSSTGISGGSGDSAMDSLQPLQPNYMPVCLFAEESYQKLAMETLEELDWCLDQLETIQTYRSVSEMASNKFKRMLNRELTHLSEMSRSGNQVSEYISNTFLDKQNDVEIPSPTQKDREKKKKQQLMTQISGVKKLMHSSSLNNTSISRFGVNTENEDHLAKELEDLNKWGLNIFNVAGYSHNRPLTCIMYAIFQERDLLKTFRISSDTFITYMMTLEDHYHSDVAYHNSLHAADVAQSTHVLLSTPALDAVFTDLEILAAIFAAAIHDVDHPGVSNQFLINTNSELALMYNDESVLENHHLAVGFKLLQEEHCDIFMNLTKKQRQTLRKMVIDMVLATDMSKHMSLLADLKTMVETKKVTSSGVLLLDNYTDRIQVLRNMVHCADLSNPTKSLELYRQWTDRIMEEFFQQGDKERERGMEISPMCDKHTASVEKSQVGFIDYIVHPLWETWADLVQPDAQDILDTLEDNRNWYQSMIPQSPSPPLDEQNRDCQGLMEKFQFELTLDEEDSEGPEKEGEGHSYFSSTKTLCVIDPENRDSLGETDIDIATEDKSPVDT

As for `COc1cc2c(cc1OC)-c1c/c(=N\c3c(C)cc(C)cc3C)n(CCNC(N)=O)c(=O)n1CC2` [RPL554], the plasma clearance result in data set [1] is “high”. Besides, the solubility result in data set [2] is given as “poor”. For the same molecule, the PDE4 inhibitory activity entry in the data set with PDE4 is “unsatisfactory”.

For `COc1cc2c(cc1OC)-c1c/c(=N\c3c(C)cc(C4CC4)cc3C)n(CCNC(=O)c3c(O)nnn3C)c(=O)n1CC2` [Compound 6, (E)-N-(2-(2-((4-cyclopropyl-2,6-dimethylphenyl)imino)-9,10-dimethoxy-4-oxo-6,7-dihydro-2H-pyrimido[6,1-a]isoquinolin-3(4H)-yl)ethyl)-4-hydroxy-1-methyl-1H-1,2,3-triazole-5-carboxamide], the IC50 worked out at 0.53 nM on PDE3A recombinant enzyme and 8.43 nM in data set [3].

As to `CCOc1cc2c(cc1OC)-c1c/c(=N\c3c(C)cc(C4CC4)cc3C)n(CCNC(=O)c3c(O)nnn3C)c(=O)n1CC2` [Compound 8, (E)-N-(2-(2-((4-cyclopropyl-2,6-dimethylphenyl)imino)-9-ethoxy-10-methoxy-4-oxo-6,7-dihydro-2H-pyrimido[6,1-a]isoquinolin-3(4H)-yl)ethyl)-4-hydroxy-1-methyl-1H-1,2,3-triazole-5-carboxamide], the IC50 on PDE3A recombinant enzyme amounted to 0.59 nM; in data set [3] it was 1.4 nM.

With `CCOc1cc2c(cc1OC)-c1c/c(=N\c3c(C)cc(OC)cc3C)n(CCNC(=O)c3c(O)nnn3C)c(=O)n1CC2` [Compound 9, (E)-N-(2-(9-ethoxy-10-methoxy-2-((4-methoxy-2,6-dimethylphenyl)imino)-4-oxo-6,7-dihydro-2H-pyrimido[6,1-a]isoquinolin-3(4H)-yl)ethyl)-4-hydroxy-1-methyl-1H-1,2,3-triazole-5-carboxamide], the IC50 at PDE3A recombinant enzyme was determined as 0.5 nM; in data set [3] it was 1.52 nM.

These data come from patent US20250171436A1, “Tricyclic Fused Heterocyclic PDE3/4 Dual Inhibitor and Use Thereof” (XIZANG HAISCO PHARMACEUTICAL CO., LTD., priority 2022, published 2025).
